Data from patent US11479802B2, “Assays for screening activity of modulators of members of the hydroxy steroid (17-beta) dehydrogenase (HSD17B) family” (Regeneron Pharmaceuticals, Inc., priority 2017, dated 2022).

Legend:
Type in all cases: biochemical
human HSD17B13 = molecular target: T1, human HSD17B13 (Homo sapiens, UniProt Q7Z5P4); assay: Substrate screening of steroid and bioactive lipid libraries against purified recombinant HSD17B13 (NADH-linked luciferase assay); conditions: Steroid Library, 50 μM steroid; for HSD17B13 Enzymatic Activity Relative Light Units: 500 μM NAD+, 100 ng enzyme, 3 hours at 23° C.; for HSD17B13 Enzymatic Activity Percent Estradiol Control: normalized to 50 μM estradiol after subtraction of 5% DMSO
T1 sequence (Q7Z5P4 20-300): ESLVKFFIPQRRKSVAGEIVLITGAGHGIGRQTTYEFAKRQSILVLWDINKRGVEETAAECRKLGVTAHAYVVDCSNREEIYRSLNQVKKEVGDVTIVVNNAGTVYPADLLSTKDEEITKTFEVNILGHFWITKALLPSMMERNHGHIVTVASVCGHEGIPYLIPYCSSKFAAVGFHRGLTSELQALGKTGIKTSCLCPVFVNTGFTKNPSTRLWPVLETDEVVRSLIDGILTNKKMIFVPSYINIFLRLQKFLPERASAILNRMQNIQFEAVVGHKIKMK
Procedure, shortened: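 Recombinant human HSD17B13 (100 ng) incubated 3 h at 23° C in 0.2 M Tris-HCl pH 7.5 with 500 μM NAD+ and 5 μM bioactive lipid or 50 μM steroid (5% DMSO). NADH measured by luciferase luminescence after 1 h; values as percent of 50 μM estradiol control after 5% DMSO subtraction.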

HSD17B1 = molecular target: T2, HSD17B1 (Homo sapiens, UniProt P14061); assay: Steroid substrate panel against HSD17B family member B1; conditions: substrate at 50 μM; estradiol set as 100%
T2 construct: made in house
T2 sequence (P14061 1-328): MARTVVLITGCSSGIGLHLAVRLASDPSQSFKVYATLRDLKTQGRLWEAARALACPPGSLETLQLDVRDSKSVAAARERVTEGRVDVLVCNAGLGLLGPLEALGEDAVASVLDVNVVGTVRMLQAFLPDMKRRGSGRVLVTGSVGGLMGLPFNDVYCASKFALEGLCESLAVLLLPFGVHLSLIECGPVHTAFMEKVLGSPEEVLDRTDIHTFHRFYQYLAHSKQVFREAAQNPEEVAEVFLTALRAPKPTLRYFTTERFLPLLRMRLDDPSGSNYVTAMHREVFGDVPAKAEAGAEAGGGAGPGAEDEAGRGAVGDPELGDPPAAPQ
Experimental: (§1) To understand the functional consequences of premature truncation of the HSD17B13 protein due to rs72613567:TA (the associated variant, rs72613567, is an insertion of an adenine adjacent to the donor splice site of exon six (TA allele)), the enzymatic activity of isoforms A and D was evaluated in vitro using recombinant protein and nicotinamide […] dinucleotide as cofactor. Reactions were performed in a final volume of 40 μl of assay buffer (0.2 M Tris-HCl, pH 7.5) which contained 500 μM NAD^+, 5 μM bioactive lipid or 50 μM steroid (all in a final concentration of 5% DMSO), and 100 ng of recombinant human HSD17B13. Reactions were incubated for 3 hours, at 23° C., after which an equal volume detection reagent was added. Following a 1 hour incubation at 23° C., the relative light units (RLUs) were measured on an Envision Plate Reader (Perkin Elmer). Raw RLU values were normalized as percent of control (50 μM estradiol) following subtraction of negative control (5% DMSO) using the following formula: Percent of control (POC)=100×(Sample (RLU)−Negative CTRLaverage)/(Positive CTRLaverage−Negative CTRLaverage).
(§2) In order to determine specificity of compounds with inhibitory activity against HSD17B13, assays for selected members of the HSD17B family which includes HSD17B1-HSD17B14 were established. As a first step, selected family members were expressed, purified and tested for activity a using a steroid substrate panel. Substrates from the steroid panel were tested at 50 μM, using the standard assay protocol. Activity against the substrates for each HSD17B family member were normalized to Percent of Control (POC). The control, estradiol, was set as 100%.

HSD17B2 = molecular target: T3, HSD17B2 (Homo sapiens, UniProt P37059); assay: Steroid substrate panel against HSD17B family member B2; conditions: substrate at 50 μM; estradiol set as 100%
T3 construct: made in house
T3 sequence (P37059 1-387): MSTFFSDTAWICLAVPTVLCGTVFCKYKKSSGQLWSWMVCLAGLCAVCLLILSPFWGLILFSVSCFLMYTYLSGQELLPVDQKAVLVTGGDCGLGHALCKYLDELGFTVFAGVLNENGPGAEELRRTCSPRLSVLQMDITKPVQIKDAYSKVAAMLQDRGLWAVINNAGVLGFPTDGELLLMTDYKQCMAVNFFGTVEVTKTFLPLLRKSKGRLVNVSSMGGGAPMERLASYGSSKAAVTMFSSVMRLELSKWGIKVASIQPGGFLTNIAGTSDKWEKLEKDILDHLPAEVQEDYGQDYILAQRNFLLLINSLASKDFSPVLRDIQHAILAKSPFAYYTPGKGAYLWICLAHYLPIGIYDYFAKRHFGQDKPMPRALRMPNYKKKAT
Experimental: as §1, §2

HSD17B4 = molecular target: T4, HSD17B4 (Homo sapiens, UniProt P51659); assay: Steroid substrate panel against HSD17B family member B4; conditions: substrate at 50 μM; estradiol set as 100%
T4 construct: made in house
T4 sequence (P51659 1-736): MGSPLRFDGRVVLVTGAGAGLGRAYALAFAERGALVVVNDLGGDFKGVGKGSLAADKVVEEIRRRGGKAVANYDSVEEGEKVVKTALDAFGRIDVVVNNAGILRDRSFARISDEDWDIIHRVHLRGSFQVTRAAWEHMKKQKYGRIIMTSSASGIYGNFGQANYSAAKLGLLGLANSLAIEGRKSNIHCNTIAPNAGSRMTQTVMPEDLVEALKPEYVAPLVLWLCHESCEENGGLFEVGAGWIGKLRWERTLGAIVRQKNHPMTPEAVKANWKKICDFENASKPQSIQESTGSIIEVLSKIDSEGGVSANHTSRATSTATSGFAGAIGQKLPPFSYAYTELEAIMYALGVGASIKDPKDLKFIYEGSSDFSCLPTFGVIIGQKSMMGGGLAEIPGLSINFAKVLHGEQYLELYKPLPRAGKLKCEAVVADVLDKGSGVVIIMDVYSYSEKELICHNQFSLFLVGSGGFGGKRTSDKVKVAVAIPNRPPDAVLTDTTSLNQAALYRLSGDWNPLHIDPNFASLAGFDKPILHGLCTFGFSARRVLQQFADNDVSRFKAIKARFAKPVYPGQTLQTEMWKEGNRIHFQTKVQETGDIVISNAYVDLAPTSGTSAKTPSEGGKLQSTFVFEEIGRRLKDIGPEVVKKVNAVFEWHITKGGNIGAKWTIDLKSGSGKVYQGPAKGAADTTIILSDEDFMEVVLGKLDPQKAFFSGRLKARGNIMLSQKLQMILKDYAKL
Experimental: as §1, §2

HSD17B5 = molecular target: T5, HSD17B5 (Homo sapiens, UniProt P42330); assay: Steroid substrate panel against HSD17B family member B5; conditions: substrate at 50 μM; estradiol set as 100%
T5 construct: made in house
T5 sequence (P42330 1-323): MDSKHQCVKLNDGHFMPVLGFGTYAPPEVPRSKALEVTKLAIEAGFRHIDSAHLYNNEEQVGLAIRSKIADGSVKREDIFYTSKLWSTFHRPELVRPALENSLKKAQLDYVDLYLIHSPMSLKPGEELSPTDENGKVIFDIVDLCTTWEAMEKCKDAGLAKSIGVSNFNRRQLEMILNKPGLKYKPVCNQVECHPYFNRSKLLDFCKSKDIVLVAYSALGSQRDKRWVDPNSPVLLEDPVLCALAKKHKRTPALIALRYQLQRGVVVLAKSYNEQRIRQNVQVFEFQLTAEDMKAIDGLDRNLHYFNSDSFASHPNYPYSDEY
Experimental: as §1, §2

HSD17B10 = molecular target: T6, HSD17B10 (Homo sapiens, UniProt Q99714); assay: Steroid substrate panel against HSD17B family member B10; conditions: substrate at 50 μM; estradiol set as 100%
T6 construct: made in house
T6 sequence (Q99714 1-261): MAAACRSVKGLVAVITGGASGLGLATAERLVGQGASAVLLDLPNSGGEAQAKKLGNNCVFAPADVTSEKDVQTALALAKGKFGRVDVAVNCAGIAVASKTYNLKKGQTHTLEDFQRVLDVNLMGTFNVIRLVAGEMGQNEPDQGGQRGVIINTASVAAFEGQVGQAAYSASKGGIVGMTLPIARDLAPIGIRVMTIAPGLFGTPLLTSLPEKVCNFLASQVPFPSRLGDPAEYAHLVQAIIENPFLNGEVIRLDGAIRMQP
Experimental: as §1, §2

HSD17B11 = molecular target: T7, HSD17B11 (Homo sapiens, UniProt Q8NBQ5); assay: Steroid substrate panel against HSD17B family member B11; conditions: substrate at 50 μM; estradiol set as 100%
T7 construct: made in house
T7 sequence (Q8NBQ5 20-300): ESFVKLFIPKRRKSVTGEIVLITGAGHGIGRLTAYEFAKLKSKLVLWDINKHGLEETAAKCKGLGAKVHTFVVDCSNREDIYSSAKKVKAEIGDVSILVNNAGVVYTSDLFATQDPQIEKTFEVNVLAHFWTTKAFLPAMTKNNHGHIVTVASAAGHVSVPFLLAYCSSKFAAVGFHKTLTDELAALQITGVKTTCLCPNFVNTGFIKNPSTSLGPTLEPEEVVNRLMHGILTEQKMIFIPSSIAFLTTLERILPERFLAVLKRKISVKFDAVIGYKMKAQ
Experimental: as §1, §2

C[C@]12CC[C@H](O)C[C@@H]1CC[C@@H]1[C@@H]2CC[C@]2(C)[C@@H](O)CC[C@@H]12 [5alpha-androstane-3beta,17beta-diol]
HSD17B13 Enzymatic Activity Relative Light Units (human HSD17B13): 398600 RLU
HSD17B13 Enzymatic Activity Percent Estradiol Control (human HSD17B13): 4.16%
Percent of Control (POC), B1 (HSD17B1): 0.3%
Percent of Control (POC), B2 (HSD17B2): 42.5%
Percent of Control (POC), B4 (HSD17B4): 38.9%
Percent of Control (POC), B5 (HSD17B5): 0%
Percent of Control (POC), B10 (HSD17B10): 1.2%
Percent of Control (POC), B11 (HSD17B11): 0.0%

CC[C@H]1[C@@H](O)[C@@H]2[C@H](CC[C@]3(C)[C@@H]([C@H](C)CCC(=O)O)CC[C@@H]23)[C@@]2(C)CC[C@@H](O)C[C@@H]12 [6-ethylchenodeoxycholic acid]
HSD17B13 Enzymatic Activity Relative Light Units (human HSD17B13): 76200 RLU
HSD17B13 Enzymatic Activity Percent Estradiol Control (human HSD17B13): −1.47%
Percent of Control (POC), B1 (HSD17B1): 0.0%
Percent of Control (POC), B2 (HSD17B2): 0.1%
Percent of Control (POC), B4 (HSD17B4): 4.6%
Percent of Control (POC), B5 (HSD17B5): 192%
Percent of Control (POC), B10 (HSD17B10): 39.3%
Percent of Control (POC), B11 (HSD17B11): 0.0%

C[C@]12CC[C@@H](O)C[C@@H]1CC[C@@H]1[C@@H]2C(=O)C[C@]2(C)C(=O)CC[C@@H]12 [11-oxo-androsterone]
HSD17B13 Enzymatic Activity Relative Light Units (human HSD17B13): 196640 RLU
HSD17B13 Enzymatic Activity Percent Estradiol Control (human HSD17B13): 0.63%
Percent of Control (POC), B1 (HSD17B1): 0.0%
Percent of Control (POC), B2 (HSD17B2): 0.0%
Percent of Control (POC), B4 (HSD17B4): 0.4%
Percent of Control (POC), B5 (HSD17B5): 0%
Percent of Control (POC), B10 (HSD17B10): 31.4%
Percent of Control (POC), B11 (HSD17B11): 0.0%

C[C@]12CC[C@@H](O)C[C@H]1CC[C@@H]1[C@@H]2C(=O)C[C@]2(C)C(=O)CC[C@@H]12 [11-oxo-etiocholanolone]
HSD17B13 Enzymatic Activity Relative Light Units (human HSD17B13): 195960 RLU
HSD17B13 Enzymatic Activity Percent Estradiol Control (human HSD17B13): 0.62%
Percent of Control (POC), B1 (HSD17B1): −0.1%
Percent of Control (POC), B2 (HSD17B2): 0.0%
Percent of Control (POC), B4 (HSD17B4): 0.2%
Percent of Control (POC), B5 (HSD17B5): 13%
Percent of Control (POC), B10 (HSD17B10): 30.7%
Percent of Control (POC), B11 (HSD17B11): 0.0%

C[C@]12CC[C@@H](O)C[C@@H]1CC[C@@H]1[C@@H]2CC[C@]2(C)C(=O)[C@H](O)C[C@@H]12 [16alpha-Hydroxyandrosterone]
HSD17B13 Enzymatic Activity Relative Light Units (human HSD17B13): 221840 RLU
HSD17B13 Enzymatic Activity Percent Estradiol Control (human HSD17B13): 1.07%
Percent of Control (POC), B1 (HSD17B1): 0.0%
Percent of Control (POC), B2 (HSD17B2): 1.5%
Percent of Control (POC), B4 (HSD17B4): 0.5%
Percent of Control (POC), B5 (HSD17B5): 45%
Percent of Control (POC), B10 (HSD17B10): 69.7%
Percent of Control (POC), B11 (HSD17B11): 0.0%

C[C@]12CC[C@@H](O)C[C@@H]1CC[C@@H]1[C@@H]2CC[C@]2(C)C(=O)CC[C@@H]12 [Androsterone]
HSD17B13 Enzymatic Activity Relative Light Units (human HSD17B13): 158120 RLU
HSD17B13 Enzymatic Activity Percent Estradiol Control (human HSD17B13): −0.04%
Percent of Control (POC), B1 (HSD17B1): 0.0%
Percent of Control (POC), B2 (HSD17B2): 1.0%
Percent of Control (POC), B4 (HSD17B4): 0.3%
Percent of Control (POC), B5 (HSD17B5): 0%
Percent of Control (POC), B10 (HSD17B10): 91.0%
Percent of Control (POC), B11 (HSD17B11): 0.0%
